# Experimental data taken from patent US4364958A, “1-Substituted-3-cycloalkyl-sulfonyl-pyrrolidine-2,5-dione derivatives and fungicidal compositions thereof” (Chinoin Gyogyszer es Vegyeszeti Termekek Gyara Rt., priority 1979, dated 1982).
# Like-named read-outs stand apart in the source and are kept apart here.
# What was measured:
# [1] = system: Penicillium digitatum CBS.31948; assay: minimal inhibitory concentration in Sabouraud medium; type: cell-based; conditions: Penicillium digitatum
# From the text: Penicillium digitatum CBS.31948
# (§1) As a medium Saboroud medium was employed.
# [2] = system: Candida krusei 79/K47; assay: as above; conditions: Pichia kudriavzevii, read-out: minimal inhibitory concentration
# [3] = system: Trichophyton mentagrophytes CBS.50148; assay: as above; type: cell-based; conditions: Trichophyton mentagrophytes
# From the text: Trichophyton mentagrophytes CBS.50148
# as §1
# [4] = system: Microsporum gypseum ver. vinosum CBS.10064; assay: as above; type: cell-based; conditions: Nannizzia gypsea
# From the text: Microsporum gypseum ver. vinosum CBS.10064
# as §1
# [5] = system: Trichophyton rubrum CBS.30338; assay: as above; type: cell-based; conditions: for MIC: Trichophyton rubrum
# From the text: Trichophyton rubrum CBS.30338
# as §1
# [6] = system: Sporotrichum schenkii CBS.34035; assay: as above; type: cell-based; conditions: Sporotrichum
# From the text: Sporotrichum schenkii CBS.34035
# as §1
# [7] = system: Penicillium chrysogenium CBS.19646; assay: as above; type: cell-based; conditions: Penicillium
# From the text: Penicillium chrysogenium CBS.19646
# as §1
# [8] = system: Botrytis cinerea; assay: activity against phytopathogenic fungi; type: cell-based
# [9] = system: Verticillium albo-atrum; assay: activity against phytopathogenic fungi; type: cell-based
# [10] = system: Phytophtora infestans; type: cell-based
# [11] = system: Epidermophyton floccosum OKI/IV.; assay: minimal inhibitory concentration in Sabouraud medium; type: cell-based; conditions: for MIC: Epidermophyton floccosum, read-out: minimal inhibitory concentration
# From the text: Epidermophyton floccosum OKI/IV.
# as §1
# [12] = system: Aspergillus niger CCM.F-330; assay: as above; type: cell-based; conditions: Aspergillus niger
# From the text: Aspergillus niger CCM.F-330
# as §1
# [13] = system: Candida humicola; assay: minimal inhibitory concentration, proliferating fungi; type: cell-based; conditions: Vanrija humicola
# From the text: as §1
# [14] = system: Fusarium culmorum DSM.11425; assay: minimal inhibitory concentration in Sabouraud medium; type: cell-based
# From the text: Fusarium culmorum DSM.11425
# as §1
# [15] = system: Sclerotinia sclerotiorum; assay: activity against phytopathogenic fungi; type: cell-based
# [16] = system: Cercospora beticola; assay: activity against phytopathogenic fungi; type: cell-based
# [17] = system: Saccharomyces cerevisiae OKI.1282; assay: minimal inhibitory concentration in Sabouraud medium; type: cell-based; conditions: Saccharomyces cerevisiae, OKI.1282, 48 h, 48 hours
# From the text: Saccharomyces cerevisiae OKI.1282
# as §1
# [18] = system: Fusarium monoliforme DSM.11778; assay: as above; type: cell-based; conditions: Fusarium
# From the text: Fusarium monoliforme DSM.11778
# as §1
# [19] = system: Verticillium dahlise; assay: activity against phytopathogenic fungi; type: cell-based
# [20] = system: Fusarium graminocorum DSM.11802; assay: minimal inhibitory concentration in Sabouraud medium; type: cell-based
# From the text: Fusarium graminocorum DSM.11802
# as §1
# [21] = system: Candida tropicalis CBS.433; assay: as above; type: cell-based; conditions: Candida tropicalis
# From the text: Candida tropicalis CBS.433 "3"
# as §1
# [22] = system: Penicillium digitatum CCM.F-382; assay: as above; type: cell-based; conditions: Penicillium digitatum
# From the text: Penicillium digitatum CCM.F-382
# as §1
# [23] = system: Cryptococcus neoform. 78/K16; assay: as above; conditions: read-out: minimal inhibitory concentration
# [24] = system: Aspergillus niger CBS.12648; assay: as above; type: cell-based; conditions: for MIC: Aspergillus niger
# From the text: Aspergillus niger CBS.12648
# as §1
# [25] = system: Fusarium oxysporum DSM.10975; assay: as above; type: cell-based
# From the text: Fusarium oxysporum DSM.10975
# as §1
# [26] = system: Aspergillus flavus CBS.24765; assay: as above; type: cell-based; conditions: Aspergillus flavus
# From the text: Aspergillus flavus CBS.24765
# as §1
# [27] = system: Venturia; assay: activity against phytopathogenic fungi; type: cell-based
# [28] = system: Aspergillus fumigatus CBS.11326; assay: minimal inhibitory concentration in Sabouraud medium; type: cell-based; conditions: Aspergillus fumigatus
# From the text: Aspergillus fumigatus CBS.11326
# as §1
# [29] = system: Ascochyta pisi; assay: activity against phytopathogenic fungi; type: cell-based
# [30] = system: Penicillium chrysogenium CCM.F-362; assay: minimal inhibitory concentration in Sabouraud medium; type: cell-based; conditions: Penicillium
# From the text: Penicillium chrysogenium CCM.F-362
# as §1
# [31] = system: Taphrina deformans; assay: activity against phytopathogenic fungi; type: cell-based
# [32] = system: Candida albicans CBS.562; assay: minimal inhibitory concentration in Sabouraud medium; type: cell-based; conditions: 48 hours
# From the text: Candida albicans CBS.562 "2"
# as §1
smiles,measurement,setting,value
Cc1ccc(N2C(=O)CC(S(=O)(=O)C3CCCCC3)C2=O)cc1 (stereo not shown),MIC,"[1]; CBS.31948, 72 h, 72 hours",10 µg/mL
same,MIC,"[1]; CBS.31948, 144 h, 144 hours",10 µg/mL
same,MIC,"[1]; CBS.31948, 288 h, 288 hours",10 µg/mL
same,MIC,"[2]; 79/K47, 24 h",2.5 µg/mL
same,MIC,"[2]; 79/K47, 48 h",10 µg/mL
same,MIC,"[3]; CBS.50148, 72 h, 72 hours, read-out: minimal inhibitory concentration",2.5 µg/mL
same,MIC,"[3]; CBS.50148, 144 h, 144 hours, read-out: minimal inhibitory concentration",2.5 µg/mL
same,MIC,"[3]; CBS.50148, 288 h, 288 hours, read-out: minimal inhibitory concentration",5 µg/mL
same,MIC,"[3]; CBS.50148, read-out: Minimal inhibitory concentration inhibiting the growth",2.5 µg/mL
same,MIC,[4]; 72 h,10 µg/mL
same,MIC,[4]; 144 h,25 µg/mL
same,MIC,[4]; 288 h,25 µg/mL
same,minimal inhibitory concentration,[5]; 144 hours,2.5 µg/mL
same,minimal inhibitory concentration,[5]; 288 hours,2.5 µg/mL
same,MIC,"[5]; CBS.30338, 144 h, 144 hours",5 µg/mL
same,MIC,"[5]; CBS.30338, 288 h, 288 hours",5 µg/mL
same,MIC,"[6]; CBS.34035, 72 h, 72 hours",5 µg/mL
same,MIC,"[6]; CBS.34035, 288 h, 288 hours",25 µg/mL
same,MIC,"[7]; CBS.19646, 72 h, 72 hours",50 µg/mL
same,MIC,"[7]; CBS.19646, 144 h, 144 hours",75 µg/mL
same,MIC,"[7]; CBS.19646, 288 h, 288 hours",75 µg/mL
same,activity against Botrytis cinerea,[8],active
same,activity against Verticillium albo-atrum,[9],active
same,activity against Phytophtora infestans,[10],active
same,minimal inhibitory concentration,[11]; 72 hours,2.5 µg/mL
same,MIC,[11]; 72 h,5 µg/mL
same,MIC,[11]; 144 h,5 µg/mL
same,MIC,[11]; 288 h,5 µg/mL
same,MIC,"[12]; CCM.F330, 72 h, 72 hours",100 µg/mL
same,MIC,"[12]; CCM.F330, 144 h, 144 hours",150 µg/mL
same,MIC,"[12]; CCM.F330, 288 h, 288 hours",250 µg/mL
same,MIC,[13]; 24 hours,5 µg/mL
same,MIC,[13]; 48 hours,25 µg/mL
same,MIC,[14]; 72 hours,75 µg/mL
same,MIC,[14]; 144 hours,150 µg/mL
same,MIC,[14]; 288 hours,150 µg/mL
same,activity against Sclerotinia sclerotiorum,[15],active
same,activity against Cercospora beticola,[16],active
same,MIC,[17],25 µg/mL
same,MIC,"[18]; DSM.11778, 72 h, 72 hours",100 µg/mL
same,MIC,"[18]; DSM.11778, 144 h, 144 hours",150 µg/mL
same,MIC,"[18]; DSM.11778, 288 h, 288 hours",150 µg/mL
same,activity against Verticillium dahlise,[19],active
same,MIC,[20]; 72 hours,50 µg/mL
same,MIC,[20]; 144 hours,50 µg/mL
same,MIC,[20]; 288 hours,50 µg/mL
same,MIC,"[21]; CBS.433, 24 h, 24 hours",100 µg/mL
same,MIC,"[21]; CBS.433, 48 h, 48 hours",150 µg/mL
same,MIC,"[22]; CCM.F382, 72 h, 72 hours",25 µg/mL
same,MIC,"[22]; CCM.F382, 144 h, 144 hours",25 µg/mL
same,MIC,"[22]; CCM.F382, 288 h, 288 hours",75 µg/mL
same,MIC,[23]; 24 h,1 µg/mL
same,MIC,[23]; 48 h,10 µg/mL
same,minimal inhibitory concentration,[24]; 144 hours,50 µg/mL
same,MIC,"[24]; CBS.12648, 72 h, 72 hours",25 µg/mL
same,MIC,"[24]; CBS.12648, 144 h, 144 hours",75 µg/mL
same,MIC,"[24]; CBS.12648, 288 h, 288 hours",75 µg/mL
same,MIC,[25]; 72 hours,150 µg/mL
same,MIC,[25]; 144 hours,200 µg/mL
same,MIC,[25]; 288 hours,200 µg/mL
same,MIC,"[26]; CBS.24765, 72 h, 72 hours",150 µg/mL
same,MIC,"[26]; CBS.24765, 144 h, 144 hours",250 µg/mL
same,activity against Venturia,[27],active
same,MIC,"[28]; CBS.11326, 72 h, 72 hours",50 µg/mL
same,MIC,"[28]; CBS.11326, 144 h, 144 hours",150 µg/mL
same,MIC,"[28]; CBS.11326, 288 h, 288 hours",150 µg/mL
same,activity against Ascochyta pisi,[29],active
same,MIC,"[30]; CCM.F362, 72 h, 72 hours",75 µg/mL
same,MIC,"[30]; CCM.F362, 144 h, 144 hours",150 µg/mL
same,MIC,"[30]; CCM.F362, 288 h, 288 hours",150 µg/mL
same,activity against Taphrina deformans,[31],active
same,minimal inhibitory concentration,[32],25 µg/mL
same,MIC,"[32]; Candida albicans, CBS.562, 48 h",50 µg/mL
